# Measurements published in patent US20230346827A1 (priority 2020, published 2023).
# Marks after values point to notes of the source that are not given here.
# Tests used:
# [1] = test system: ALS patients; assay: ALSAQ-40 sub-scores in ALS patients, dextran sulfate 2 mg/kg s.c. weekly for ten weeks (Example 14); format: in vivo, human; details: after 10 weeks of treatment
# Description: Dextran sulfate (ILB®, Tikomed AB, Viken, Sweden, WO 2016/076780) was administered at 2 mg/kg by […] subcutaneous injection once a week for ten weeks to 8 human patients suffering from ALS.
# ALSAQ-40 was assessed pre-treatment and weekly thereafter for the 10 treatment weeks and for the visits at the follow-up period.
# [2] = test system: rats subjected to sTBI; assay: sTBI rats, LMW-DS 15 mg/kg s.c.: HPLC of brain free amino acids (Example 3); format: in vivo, rat
# [3] = Acute phase 1: drug 30 min, sacrifice 2 d post-TBI
# [4] = Acute phase 2: drug 30 min, sacrifice 7 d post-TBI
# [5] = Chronic phase: drug 3 d, sacrifice 7 d post-TBI
substance,measurement,setting,value
sodium salt of dextran sulfate [LMW-DS],ALSAQ-40 ADL sub-score,[1],44.4 ± 24.7
same,ALSAQ-40 PM sub-score,[1],22.7 ± 20.2
same,decline of ALSAQ-40 ADL sub-score,[1],18.6%
same,decline of ALSAQ-40 PM sub-score,[1],16%
same,ALA,[2]; [3],0.50±0.12^a µmol/g (w.w.)
same,ARG,[2]; [3],"0.13±0.02^b,d µmol/g (w.w.)"
same,ASN,[2]; [3],0.12±0.02^i µmol/g (w.w.)
same,ASP,[2]; [3],"2.40±0.56^d,i µmol/g (w.w.)"
same,CITR,[2]; [3],0.018 ± 0.004 µmol/g (w.w.)
same,GABA,[2]; [3],1.43±0.25^a µmol/g (w.w.)
same,GLN,[2]; [3],4.78±1.09^a µmol/g (w.w.)
same,GLU,[2]; [3],9.81±1.66^i µmol/g (w.w.)
same,GLY,[2]; [3],"0.83±0.25^a,c µmol/g (w.w.)"
same,HIS,[2]; [3],0.068±0.015^b µmol/g (w.w.)
same,L-Cystat,[2]; [3],"0.185±0.031^b,c,i µmol/g (w.w.)"
same,MET,[2]; [3],"0.016±0.005^d,j µmol/g (w.w.)"
same,SAH,[2]; [3],"0.033±0.008^b,c,j µmol/g (w.w.)"
same,SER,[2]; [3],0.88±0.25^a µmol/g (w.w.)
same,TAU,[2]; [3],4.86±00.85^b µmol/g (w.w.)
same,THR,[2]; [3],0.92±0.29^a µmol/g (w.w.)
same,TYR,[2]; [3],0.15 ± 0.03 µmol/g (w.w.)
same,VAL,[2]; [3],0.042 ± 0.011 µmol/g (w.w.)
same,ALA,[2]; [4],"0.52±0.24^a,e µmol/g (w.w.)"
same,ARG,[2]; [4],0.16 ± 0.03 µmol/g (w.w.)
same,ASN,[2]; [4],0.13±0.03^i µmol/g (w.w.)
same,ASP,[2]; [4],"2.94±0.98^f,j µmol/g (w.w.)"
same,CITR,[2]; [4],0.018 ± 0.008 µmol/g (w.w.)
same,GABA,[2]; [4],1.60±0.24^a µmol/g (w.w.)
same,GLN,[2]; [4],3.66 ± 0.41 µmol/g (w.w.)
same,GLU,[2]; [4],"9.93±1.56^e,i µmol/g (w.w.)"
same,GLY,[2]; [4],"0.71±0.16^f,i µmol/g (w.w.)"
same,HIS,[2]; [4],0.055 ± 0.019 µmol/g (w.w.)
same,L-Cystat,[2]; [4],"0.173±0.038^b,f,i µmol/g (w.w.)"
same,MET,[2]; [4],"0.022±0.006^b,e,i µmol/g (w.w.)"
same,SAH,[2]; [4],"0.026±0.010^f,i µmol/g (w.w.)"
same,SER,[2]; [4],0.71±0.28^b µmol/g (w.w.)
same,TAU,[2]; [4],3.80 ± 1.19 µmol/g (w.w.)
same,THR,[2]; [4],0.66 ± 0.23 µmol/g (w.w.)
same,TYR,[2]; [4],"0.172±0.046^b,f µmol/g (w.w.)"
same,VAL,[2]; [4],0.057 ± 0.017 µmol/g (w.w.)
same,ALA,[2]; [5],"0.57±0.28^a,e µmol/g (w.w.)"
same,ARG,[2]; [5],0.14 ± 0.02 µmol/g (w.w.)
same,ASN,[2]; [5],0.18±0.02^a µmol/g (w.w.)
same,ASP,[2]; [5],"4.46±0.70^a,f µmol/g (w.w.)"
same,CITR,[2]; [5],0.020 ± 0.006 µmol/g (w.w.)
same,GABA,[2]; [5],1.85±0.65^a µmol/g (w.w.)
same,GLN,[2]; [5],3.98 ± 0.34 µmol/g (w.w.)
same,GLU,[2]; [5],13.58±1.28^a µmol/g (w.w.)
same,GLY,[2]; [5],"1.05±0.13^a,f µmol/g (w.w.)"
same,HIS,[2]; [5],0.047 ± 0.021 µmol/g (w.w.)
same,L-Cystat,[2]; [5],"0.26±0.05^a,f µmol/g (w.w.)"
same,MET,[2]; [5],0.009±0.004^b µmol/g (w.w.)
same,SAH,[2]; [5],0.050±0.013^a µmol/g (w.w.)
same,SER,[2]; [5],"0.93±0.27^a,e µmol/g (w.w.)"
same,TAU,[2]; [5],4.49±0.43^a µmol/g (w.w.)
same,THR,[2]; [5],"0.75±0.24^a,e µmol/g (w.w.)"
same,TYR,[2]; [5],0.21±0.05^f µmol/g (w.w.)
same,VAL,[2]; [5],0.040±0.016^b µmol/g (w.w.)
same,glutamate excitotoxicity marker,[2]; LMW-DS injected at 3 days after sTBI,no efficacy
same,increase in glutamate (GLU) induced by sTBI,[2]; drug administered early post-injury (30 min following sTBI),remarkable inhibition
